According to patent publication US8912220B2 (priority 2009, dated 2014):

Biological target: human 5-HT2C(VSV) (Homo sapiens, UniProt P28335, I156V/I160V/N158S)
Assay: cell-based

Chain of human 5-HT2C(VSV) (P28335 33-458 I156V/N158S/I160V limits assumed): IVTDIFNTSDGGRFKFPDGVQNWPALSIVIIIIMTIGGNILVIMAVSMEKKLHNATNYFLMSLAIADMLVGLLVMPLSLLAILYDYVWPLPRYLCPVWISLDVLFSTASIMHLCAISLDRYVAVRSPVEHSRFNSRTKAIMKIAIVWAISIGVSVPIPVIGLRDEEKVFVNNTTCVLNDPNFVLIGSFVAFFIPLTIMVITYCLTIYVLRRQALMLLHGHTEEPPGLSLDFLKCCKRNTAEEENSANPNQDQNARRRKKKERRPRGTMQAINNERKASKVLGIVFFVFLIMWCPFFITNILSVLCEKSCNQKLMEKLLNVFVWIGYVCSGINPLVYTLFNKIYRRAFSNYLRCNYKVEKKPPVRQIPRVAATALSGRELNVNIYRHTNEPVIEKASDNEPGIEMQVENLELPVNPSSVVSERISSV

| SMILES | EC50 [nM] |
| --- | --- |
| CNCCc1cn(C)c2ccc(F)c(OCc3cccc(Cl)c3)c12 [33-8, 2-(4-(3-chlorobenzyloxy)-5-fluoro-1-methyl-1H-indol-3-yl)-N-methylethanamine] | 1 to 500 |
| CNCCc1cn(C)c2ccc(F)c(OCc3cccc4cccnc34)c12 [33-13, 2-(5-fluoro-1-methyl-4-(quinolin-8-ylmethoxy)-1H-indol-3-yl)-N-methylethanamine] | 1 to 500 |
| CNCCc1cn(C)c2ccc(F)c(OCCOc3ccccc3)c12 [33-14, 2-(5-fluoro-1-methyl-4-(2-phenoxyethoxy)-1H-indol-3-yl)-N-methylethanamine] | 1 to 500 |
| CCCn1cc(CCNC)c2c(OCc3ccc(F)cc3)c(F)ccc21 [33-15, 2-(5-fluoro-4-(4-fluorobenzyloxy)-1-propyl-1H-indol-3-yl)-N-methylethanamine] | 1 to 500 |
| CCCn1cc(CCNC)c2c(OCc3ccc(C)cc3)c(F)ccc21 [33-16, 2-(5-fluoro-4-(4-methylbenzyloxy)-1-propyl-1H-indol-3-yl)-N-methylethanamine] | 1 to 500 |
| CNCCc1cn(C)c2ccc(F)c(OCCc3ccccc3C)c12 [33-17, 2-(5-fluoro-1-methyl-4-(2-methylphenethoxy)-1H-indol-3-yl)-N-methylethanamine] | 1 to 500 |
| CNCCc1cn(C)c2ccc(F)c(OCCc3ccccc3Cl)c12 [33-19, 2-(4-(2-chlorophenethoxy)-5-fluoro-1-methyl-1H-indol-3-yl)-N-methylethanamine] | 500 to 10000 |
| CNCCc1cn(C)c2ccc(F)c(OCc3ccc(Cl)cc3)c12 [33-20, 2-(4-(4-chlorobenzyloxy)-5-fluoro-1-methyl-1H-indol-3-yl)-N-methylethanamine] | 1 to 500 |
| CNCCc1cn(C)c2ccc(F)c(OCc3cccc(C(F)(F)F)c3)c12 [33-21, 2-(5-fluoro-1-methyl-4-(3-(trifluoromethyl)benzyloxy)-1H-indol-3-yl)-N-methylethanamine] | 1 to 500 |
| CNCCc1cn(C)c2ccc(F)c(OCc3ccccc3C)c12 [33-22, 2-(5-fluoro-1-methyl-4-(2-methylbenzyloxy)-1H-indol-3-yl)-N-methylethanamine] | 1 to 500 |
| CNCCc1cn(C)c2ccc(F)c(OCc3ccccc3Cl)c12 [33-23, 2-(4-(2-chlorobenzyloxy)-5-fluoro-1-methyl-1H-indol-3-yl)-N-methylethanamine] | 1 to 500 |
| CNCCc1cn(C)c2ccc(F)c(OCc3ccccc3F)c12 [33-24, 2-(5-fluoro-4-(2-fluorobenzyloxy)-1-methyl-1H-indol-3-yl)-N-methylethanamine] | 1 to 500 |
| CNCCc1cn(C)c2ccc(F)c(OCCc3ccc(OC)cc3)c12 [33-25, 2-(5-fluoro-4-(4-methoxyphenethoxy)-1-methyl-1H-indol-3-yl)-N-methylethanamine] | 1 to 500 |
| CNCCc1cn(C)c2ccc(F)c(OCCc3ccccc3)c12 [33-26, 2-(5-fluoro-1-methyl-4-phenethoxy-1H-indol-3-yl)-N-methylethanamine] | 1 to 500 |
| CNCCc1cn(C)c2ccc(F)c(OCc3ccc(C)cc3)c12 [33-27, 2-(5-fluoro-1-methyl-4-(4-methylbenzyloxy)-1H-indol-3-yl)-N-methylethanamine] | 1 to 500 |
| CNCCc1cn(C)c2ccc(F)c(OCCc3ccc(F)cc3)c12 [33-28, 2-(5-fluoro-4-(4-fluorophenethoxy)-1-methyl-1H-indol-3-yl)-N-methylethanamine] | 1 to 500 |
| CNCCc1cn(C)c2ccc(F)c(OCCc3ccc(Cl)cc3)c12 [33-29, 2-(4-(4-chlorophenethoxy)-5-fluoro-1-methyl-1H-indol-3-yl)-N-methylethanamine] | 1 to 500 |
| CNCCc1cn(C)c2ccc(F)c(OCc3ccccc3-c3ccccc3)c12 [33-30, 2-(4-(biphenyl-2-ylmethoxy)-5-fluoro-1-methyl-1H-indol-3-yl)-N-methylethanamine] | 1 to 500 |
| CNCCc1cn(C)c2ccc(F)c(OCc3ccccc3C(F)(F)F)c12 [33-31, 2-(5-fluoro-1-methyl-4-(2-(trifluoromethyl)benzyloxy)-1H-indol-3-yl)-N-methylethanamine] | 1 to 500 |
| CNCCc1cn(C)c2ccc(F)c(OC(C)c3ccccc3)c12 (stereo not drawn) [33-32, 2-(5-fluoro-1-methyl-4-(1-phenylethoxy)-1H-indol-3-yl)-N-methylethanamine] | 1 to 500 |
| CNCCc1cn(C)c2ccc(F)c(OCc3cc(F)ccc3C)c12 [33-33, 2-(5-fluoro-4-(5-fluoro-2-methylbenzyloxy)-1-methyl-1H-indol-3-yl)-N-methylethanamine] | 1 to 500 |
| CNCCc1cn(C)c2ccc(F)c(OCc3ccccc3OC(F)(F)F)c12 [33-34, 2-(5-fluoro-1-methyl-4-(2-(trifluoromethoxy)benzyloxy)-1H-indol-3-yl)-N-methylethanamine] | 1 to 500 |
| CNCCc1cn(C)c2ccc(F)c(OCc3ccc(F)cc3)c12 [33-35, 2-(5-fluoro-4-(4-fluorobenzyloxy)-1-methyl-1H-indol-3-yl)-N-methylethanamine] | 1 to 500 |

| SMILES | EC50 [nM] |
| --- | --- |
| CNCCc1cn(C)c2ccc(F)c(OCc3cccc4ccccc34)c12 [33-36, 2-(5-fluoro-1-methyl-4-(naphthalen-1-ylmethoxy)-1H-indol-3-yl)-N-methylethanamine] | 1 to 500 |
| CNCCc1cn(C)c2ccc(F)c(OCC(O)c3ccccc3Cl)c12 (stereo not drawn) [33-37, 1-(2-chlorophenyl)-2-(5-fluoro-1-methyl-3-(2-(methylamino)ethyl)-1H-indol-4-yloxy)ethanol] | 1 to 500 |
| CNCCc1cn(C)c2ccc(F)c(OCc3ccc(S(C)(=O)=O)cc3)c12 [33-38, 2-(5-fluoro-1-methyl-4-(4-(methylsulfonyl)benzyloxy)-1H-indol-3-yl)-N-methylethanamine] | 1 to 500 |
| CCCn1cc(CCNC)c2c(OCc3cccc4ccccc34)c(F)ccc21 [33-39, 2-(5-fluoro-4-(naphthalen-1-ylmethoxy)-1-propyl-1H-indol-3-yl)-N-methylethanamine] | 1 to 500 |
| CNCCc1cn(C)c2cc(F)cc(OCc3ccccc3Cl)c12 [33-44, 2-(4-(2-chlorobenzyloxy)-6-fluoro-1-methyl-1H-indol-3-yl)-N-methylethanamine] | 1 to 500 |
| CNCCc1cn(C)c2cc(F)cc(OCc3ccc(Cl)cc3)c12 [33-45, 2-(4-(4-chlorobenzyloxy)-6-fluoro-1-methyl-1H-indol-3-yl)-N-methylethanamine] | 1 to 500 |
| CNCCc1cn(C)c2cc(F)cc(OCc3cccc(Cl)c3)c12 [33-46, 2-(4-(3-chlorobenzyloxy)-6-fluoro-1-methyl-1H-indol-3-yl)-N-methylethanamine] | 1 to 500 |
| Cn1cc(CCNCc2ccccc2)c2c(O)c(F)ccc21 [33-47, 3-(2-(benzylamino)ethyl)-5-fluoro-1-methyl-1H-indol-4-ol] | 1 to 500 |
| CNCCc1cn(C)c2ccc(F)c(OCc3ccc(Cl)cc3Cl)c12 [33-48, 2-(4-(2,4-dichlorobenzyloxy)-5-fluoro-1-methyl-1H-indol-3-yl)-N-methylethanamine] | < 10000 |
| CNCCc1cn(C)c2ccc(F)c(OCc3ccc(Cl)c(OC(F)(F)F)c3)c12 [33-49, 2-(4-(4-chloro-3-(trifluoromethoxy)benzyloxy)-5-fluoro-1-methyl-1H-indol-3-yl)-N-methylethanamine] | < 10000 |
| COc1ccc(CNCCc2cn(C)c3ccc(F)c(OC)c23)cc1OC [34-8, N-(3,4-dimethoxybenzyl)-2-(5-fluoro-4-methoxy-1-methyl-1H-indol-3-yl)ethanamine] | 1 to 500 |
| COc1c(F)ccc2c1c(CCNC(CO)c1ccccc1)cn2C (stereo not drawn) [34-9, 2-(2-(5-fluoro-4-methoxy-1-methyl-1H-indol-3-yl)ethylamino)-2-phenylethanol] | 1 to 500 |
| COc1c(F)ccc2c1c(CCNC(C)c1ccccc1)cn2C (stereo not drawn) [34-10, 2-(5-fluoro-4-methoxy-1-methyl-1H-indol-3-yl)-N-(1-phenylethyl)ethanamine] | 1 to 500 |
| CN(CCc1cn(C)c2ccc(F)c(OCc3ccccc3C#N)c12)Cc1ccccc1C#N [35-2, 2-((3-(2-((2-cyanobenzyl)(methyl)amino)ethyl)-5-fluoro-1-methyl-1H-indol-4-yloxy)methyl)benzonitrile] | 500 to 10000 |
| CCn1cc(CCN(C)C)c2c(OC)cc(-c3ccccc3)cc21 [36-6, 2-(1-ethyl-4-methoxy-6-phenyl-1H-indol-3-yl)-N,N-dimethylethanamine] | 500 to 10000 |
| CCn1cc(C2=CCNCC2)c2c(OCc3ccccc3)cc(F)cc21 [37-2, 4-(benzyloxy)-1-ethyl-6-fluoro-3-(1,2,3,6-tetrahydropyridin-4-yl)-1H-indole] | 500 to 10000 |
| CCn1cc(C2CCCNC2)c2c(O)cc(F)cc21 (stereo not drawn) [38-4, 1-ethyl-6-fluoro-3-(piperidin-3-yl)-1H-indol-4-ol] | 1 to 500 |
| CCn1cc(C2CCCN(C)C2)c2c(O)cc(F)cc21 (stereo not drawn) [38-6, 1-ethyl-6-fluoro-3-(1-methylpiperidin-3-yl)-1H-indol-4-ol] | 500 to 10000 |
| CCn1cc(CCNCc2ccccc2)c2c(OC)cc(F)cc21 [39-4, N-benzyl-2-(1-ethyl-6-fluoro-4-methoxy-1H-indol-3-yl)ethanamine] | 1 to 500 |
| CCn1cc(CCN(C)CCc2cn(CC)c3cc(F)cc(OC)c23)c2c(OC)cc(F)cc21 [39-5, 2-(1-ethyl-6-fluoro-4-methoxy-1H-indol-3-yl)-N-(2-(1-ethyl-6-fluoro-4-methoxy-1H-indol-3-yl)ethyl)-N-methylethanamine] | 1 to 500 |
| CCn1cc(CCNCC(C)c2ccccc2)c2c(O)cc(F)cc21 (stereo not drawn) [39-6, 1-ethyl-6-fluoro-3-(2-(2-phenylpropylamino)ethyl)-1H-indol-4-ol] | 1 to 500 |
| CCCn1cc(CCN)c2c3c(ccc21)OCCO3 [40-6, 2-(7-propyl-3,7-dihydro-2H-[1,4]dioxino[2,3-e]indol-9-yl)ethanamine] | < 10000 |
